Test results published in PubChem BioAssay (NCI).
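Where inhibition never reached the appropriate level, the endpoint shown equals the highest concentration tested. Otherwise, values were interpolated linearly from a five-concentration, 48-hour dose response in 96-well plates. At the GI50, growth is halved. The concentration for full growth arrest is given as TGI.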

Each molecule was assayed on SF-268 CNS (assay: NCI tumour cell line growth inhibition, 48 h).
With `c1ccc(N=c2snc(-c3ccccc3)s2)cc1` the TGI was over 100 µM. `CC(C)/C(Cl)=N\OC(=O)NNc1ccccc1` showed a TGI of over 100 µM. With `O=C(/C=C/c1cccs1)c1ccc(Cl)cc1` the TGI was over 100 µM. Molecule `Cc1oc2nc(N(C)C)n3nnnc3c2c1C` has a TGI of over 100 µM. `CN(C)c1ccc(/C(Br)=C2\OC(=O)c3ccccc32)cc1` was tested, and the TGI was over 100 µM. `c1ccc2c(c1)CCCN1CCc3ccccc3C21` (stereo not drawn) gave a TGI of over 100 µM. Molecule `CN1CCN(C(=S)N(C)C(=O)c2ccc(Cl)cc2)CC1` has a TGI of over 100 µM. Work on `CC(=O)Nc1ccc(Cl)c(Cl)c1` yielded a TGI of over 100 µM. With `Cc1cc2cccc(Cl)c2nc1C(=O)c1ccccc1` the TGI was over 100 µM. Molecule `COc1ccc(CNc2nc3ccc(C(F)(F)F)cc3nc2-c2ccccc2)cc1OC` has a TGI of over 100 µM. With `CC(=O)CC(=O)c1cc2c(=O)oc(C)cc2oc1=O` the TGI was over 37.5 µM. `O=C(CCc1ccc(O)cc1)c1c(O)cc(O)cc1OC1OC(CO)C(O)C(O)C1O` (stereo not drawn) showed a TGI of over 100 µM. With `COc1cccc(C2c3cc4c(cc3OC(N3CCCC3)C2C)OCO4)c1OC` (stereo not drawn) the TGI was 21 µM. `COc1cc2c(cc1OC)C(=O)/C(=C/c1cc(C)c(O)c(C)c1)C2` gave a TGI of over 100 µM. For `CC(C)=CC1C(C(=O)O)C1(C)C` (stereo not drawn), the TGI was over 750 µM. `O=C1NC(=S)NC(=O)C1C(c1ccccc1[N+](=O)[O-])C1C(=O)NC(=S)NC1=O` was tested, and the TGI was over 100 µM. `COc1cc([C@@H]2c3cc4c(cc3C[C@H]3COC(=O)[C@@H]32)OCO4)cc(OC)c1OC` showed a GI50 of 0.00581 µM and a TGI of over 50 µM. Work on `Cc1cc(O)cc(O)c1N=Nc1ccc([N+](=O)[O-])cc1` yielded a TGI of over 100 µM. `C[C@@H]1C[C@H](O)[C@]2(O)O[C@@H]3C[C@@]4(C=O)[C@@H](CC=C5[C@@H]4CC[C@]4(C)[C@@H](C6=CC(=O)OC6)CC[C@]54O)C[C@H]3O[C@@H]2O1` gave a TGI of 0.166 µM. `CC(C)(CO)N1C(=O)c2ccccc2C1(O)c1ccc(Cl)cc1` (stereo not drawn) gave a TGI of over 100 µM. `COC1C=CC23c4cc5c(cc4C(O)OC2CN(C)C3C1)OCO5` (stereo not drawn) was tested, and the TGI was 26.9 µM. Work on `O=C(O[C@H](/C=C/c1ccccc1)P1(=O)N(Cc2ccccc2)[C@@H]2CCCC[C@H]2N1Cc1ccccc1)c1ccccc1` yielded a TGI of over 100 µM. `O=C(O)CNC(=O)c1ccc([As](=O)(O)O)cc1` was tested, and the TGI was over 100 µM. Molecule `Cc1cccc(N(CCC#N)S(=O)(=O)c2ccccc2)c1` has a TGI of over 100 µM.

Each molecule was assayed on SK-MEL-2 melanoma (assay: NCI tumour cell line growth inhibition, 48 h).
In the case of `COc1ccc(NC2Oc3cc4c(cc3C(c3cc(OC)c(OC)c(OC)c3)C2C)OCO4)cc1` (stereo not drawn), the TGI is reported as over 100 µM. For `Cc1ccc(C2=Nc3c(c(C)nn3-c3ccccc3)N=C(C(=O)O)C2)cc1`, the TGI was over 10 µM. In the case of `O=C(OCc1ccccc1)OOC(=O)OCc1ccccc1`, the TGI is reported as over 100 µM. With `Cc1ccc(C(=O)Nc2ccc(CP(=O)(O)O)cc2)cc1NC(=O)c1cccc(NC(=O)Nc2cccc(C(=O)Nc3cc(C(=O)Nc4ccc(CP(=O)(O)O)cc4)ccc3C)c2)c1` the TGI was over 100 µM. `OCc1ccccc1C1CSCSC1` gave a TGI of over 100 µM. Work on `CC(C)c1c(P(=O)(c2ccccc2)c2ccccc2)n(C)c2ccccc12` yielded a TGI of over 100 µM. In the case of `c1ccc(N=c2snc(-c3ccccc3)s2)cc1`, the TGI is reported as over 100 µM. Molecule `CC(C)/C(Cl)=N\OC(=O)NNc1ccccc1` has a TGI of over 100 µM. For `O=C(/C=C/c1cccs1)c1ccc(Cl)cc1`, the TGI was over 100 µM. `CN(C)c1ccc(/C(Br)=C2\OC(=O)c3ccccc32)cc1` showed a TGI of over 100 µM. `c1ccc2c(c1)CCCN1CCc3ccccc3C21` (stereo not drawn) gave a TGI of over 100 µM. `CN1CCN(C(=S)N(C)C(=O)c2ccc(Cl)cc2)CC1` was tested, and the TGI was over 100 µM. With `Cc1cc2cccc(Cl)c2nc1C(=O)c1ccccc1` the TGI was over 100 µM. `COc1ccc(CNc2nc3ccc(C(F)(F)F)cc3nc2-c2ccccc2)cc1OC` was tested, and the TGI was over 100 µM. `CC(=O)CC(=O)c1cc2c(=O)oc(C)cc2oc1=O` showed a TGI of over 37.5 µM. Molecule `O=C(CCc1ccc(O)cc1)c1c(O)cc(O)cc1OC1OC(CO)C(O)C(O)C1O` (stereo not drawn) has a TGI of over 100 µM. `COc1cccc(C2c3cc4c(cc3OC(N3CCCC3)C2C)OCO4)c1OC` (stereo not drawn) showed a TGI of 17.1 µM. `CC(C)=CC1C(C(=O)O)C1(C)C` (stereo not drawn) gave a TGI of over 750 µM. `O=C1NC(=S)NC(=O)C1C(c1ccccc1[N+](=O)[O-])C1C(=O)NC(=S)NC1=O` was tested, and the TGI was over 100 µM. `COc1cc([C@@H]2c3cc4c(cc3C[C@H]3COC(=O)[C@@H]32)OCO4)cc(OC)c1OC` was tested, and the TGI was over 2.32 µM. Work on `C[C@]12CC/C(=N\O)C=C1CC[C@@H]1[C@@H]2CC[C@]2(C)C(=N/O)/C(=C/c3cccnc3)C[C@@H]12` yielded a TGI of 97.8 µM. In the case of `Cc1cc(O)cc(O)c1N=Nc1ccc([N+](=O)[O-])cc1`, the TGI is reported as 75.4 µM. For `CC(C)(CO)N1C(=O)c2ccccc2C1(O)c1ccc(Cl)cc1` (stereo not drawn), the TGI was over 100 µM. `C=CCCCC12CCCc3cccc(c31)NC2=O` (stereo not drawn) showed a TGI of 55.5 µM. `O=C(O[C@H](/C=C/c1ccccc1)P1(=O)N(Cc2ccccc2)[C@@H]2CCCC[C@H]2N1Cc1ccccc1)c1ccccc1` gave a TGI of 5.53 µM. In the case of `O=C(O)CNC(=O)c1ccc([As](=O)(O)O)cc1`, the TGI is reported as over 100 µM. `Cc1cccc(N(CCC#N)S(=O)(=O)c2ccccc2)c1` was tested, and the TGI was over 100 µM.

What follows are molecules tested on SNB-19 CNS (assay: NCI tumour cell line growth inhibition, 48 h).
With `COc1ccc(NC2Oc3cc4c(cc3C(c3cc(OC)c(OC)c(OC)c3)C2C)OCO4)cc1` (stereo not drawn) the TGI was over 100 µM. Work on `Cc1ccc(C2=Nc3c(c(C)nn3-c3ccccc3)N=C(C(=O)O)C2)cc1` yielded a TGI of over 10 µM. `O=C(OCc1ccccc1)OOC(=O)OCc1ccccc1` gave a TGI of over 100 µM. Molecule `Cc1ccc(C(=O)Nc2ccc(CP(=O)(O)O)cc2)cc1NC(=O)c1cccc(NC(=O)Nc2cccc(C(=O)Nc3cc(C(=O)Nc4ccc(CP(=O)(O)O)cc4)ccc3C)c2)c1` has a TGI of over 100 µM. For `CC(C)c1c(P(=O)(c2ccccc2)c2ccccc2)n(C)c2ccccc12`, the TGI was over 100 µM. For `c1ccc(N=c2snc(-c3ccccc3)s2)cc1`, the TGI was over 100 µM. Work on `CC(C)/C(Cl)=N\OC(=O)NNc1ccccc1` yielded a TGI of over 100 µM. `O=C(/C=C/c1cccs1)c1ccc(Cl)cc1` gave a TGI of over 100 µM. `Cc1oc2nc(N(C)C)n3nnnc3c2c1C` was tested, and the TGI was over 100 µM. With `CN(C)c1ccc(/C(Br)=C2\OC(=O)c3ccccc32)cc1` the TGI was over 100 µM. Molecule `c1ccc2c(c1)CCCN1CCc3ccccc3C21` (stereo not drawn) has a TGI of over 100 µM. Molecule `CN1CCN(C(=S)N(C)C(=O)c2ccc(Cl)cc2)CC1` has a TGI of over 100 µM. For `CC(=O)Nc1ccc(Cl)c(Cl)c1`, the TGI was over 100 µM. `Cc1cc2cccc(Cl)c2nc1C(=O)c1ccccc1` showed a TGI of over 100 µM. `COc1ccc(CNc2nc3ccc(C(F)(F)F)cc3nc2-c2ccccc2)cc1OC` showed a TGI of over 100 µM. `CC(=O)CC(=O)c1cc2c(=O)oc(C)cc2oc1=O` showed a TGI of over 37.5 µM. In the case of `COc1cccc(C2c3cc4c(cc3OC(N3CCCC3)C2C)OCO4)c1OC` (stereo not drawn), the TGI is reported as 5.33 µM. In the case of `COc1cc2c(cc1OC)C(=O)/C(=C/c1cc(C)c(O)c(C)c1)C2`, the TGI is reported as over 100 µM. `CC(C)=CC1C(C(=O)O)C1(C)C` (stereo not drawn) was tested, and the TGI was over 750 µM. Work on `O=C1NC(=S)NC(=O)C1C(c1ccccc1[N+](=O)[O-])C1C(=O)NC(=S)NC1=O` yielded a TGI of over 100 µM. For `COc1cc([C@@H]2c3cc4c(cc3C[C@H]3COC(=O)[C@@H]32)OCO4)cc(OC)c1OC`, the GI50 was 0.00666 µM and the TGI was over 7.93 µM. `C[C@]12CC/C(=N\O)C=C1CC[C@@H]1[C@@H]2CC[C@]2(C)C(=N/O)/C(=C/c3cccnc3)C[C@@H]12` showed a TGI of over 100 µM. `Cc1cc(O)cc(O)c1N=Nc1ccc([N+](=O)[O-])cc1` gave a TGI of over 100 µM. With `C[C@@H]1C[C@H](O)[C@]2(O)O[C@@H]3C[C@@]4(C=O)[C@@H](CC=C5[C@@H]4CC[C@]4(C)[C@@H](C6=CC(=O)OC6)CC[C@]54O)C[C@H]3O[C@@H]2O1` the TGI was 0.93 µM. `CC(C)(CO)N1C(=O)c2ccccc2C1(O)c1ccc(Cl)cc1` (stereo not drawn) showed a TGI of over 100 µM.
